pIC50, pKd: −log10 of the molar value. Where a name gives a salt, the structure may show the parent alone.
Experiments:
[1] = target: T1, wild type human RORγt LBD (Homo sapiens, UniProt P51449); test: RORγt Reporter Assay (GAL4-RORγt LBD luciferase in HEK293T cells); type: cell-based; conditions: HEK293T cells; for pIC50: compounds for 24 hours, read-out: RORγt reporter Assay, IC50; for inhibition at 6 µM: HEK-293T, read-out: RORγt reporter Assay, % inhibition @ 6 µM, @ 6 µM
T1 construct: expressed in transfected cells; host or cells: HEK293T
T1 sequence (P51449 269-508 limits assumed): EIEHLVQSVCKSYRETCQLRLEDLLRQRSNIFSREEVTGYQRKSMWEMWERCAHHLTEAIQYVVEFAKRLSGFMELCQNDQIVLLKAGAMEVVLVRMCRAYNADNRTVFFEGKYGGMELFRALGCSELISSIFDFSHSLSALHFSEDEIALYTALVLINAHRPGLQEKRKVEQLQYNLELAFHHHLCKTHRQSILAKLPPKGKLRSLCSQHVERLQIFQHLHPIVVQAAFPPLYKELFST
In short: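 HEK293T cells transiently co-transfected with GAL4-DBD–human RORγt LBD (or AF2 mutant) and GAL4-responsive firefly luciferase reporter; renilla luciferase normalised transfection and viability. Compounds applied 24 h in 5% lipid-reduced FCS; firefly/renilla ratio plotted against concentration.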

[2] = tested on: IL-17 production by CD4 T cells; test: Human Th17 Assay (IL-17 production by CD4 T cells under Th17 differentiation conditions); type: cell-based; conditions: 3 days, IL-17 in supernatant
Method: The human Th17 assay tests the effect of RORγt modulatory compounds on IL-17 production by CD4 T cells under conditions which favor Th17 differentiation. Total CD4^+ T cells were isolated from the peripheral blood mononuclear cells (PBMC) of healthy donors using a CD4^+ T cell isolation kit II, following the manufacturer's instructions (Miltenyi Biotec). […] 50 µL of compound at titrated concentrations in DMSO were added into each well at final DMSO concentration at 0.2%. Cells were incubated for 1 hour, then 50 µL of Th17 cell differentiation medium was added to each well. The final concentrations of antibodies and cytokines (R&D Systems) in differentiation medium were: 3x10^6/mL anti-CD3/CD28 beads (prepared using human T cell activation/expansion kit, Miltenyi Biotec), 10 µg/mL anti-IL4, 10 µg/mL anti-IFNγ, 10 ng/mL […], 10 ng/mL IL23, 50 ng/mL IL6, 3 ng/mL TGFβ and 20 U/mL IL2. Cells were cultured at 37 °C and 5% CO2 for 3 days. Supernatants were collected and the accumulated IL-17 in culture was measured by using MULTI-SPOT® Cytokine Plate following manufacture's instruction (Meso Scale Discovery). The plate was read using Sector Imager 6000, and IL-17 concentration was extrapolated from the standard curve. The IC50s were determined by GraphPad.

[3] = target: T2, wild type human RORγt ligand binding domain (RORγt LBD) (Homo sapiens, UniProt P51449); test: RORγt ThermoFluor® Assay (thermal shift, binding affinity); conditions: pH 7.0, estimated from concentration response curves
T2 construct: His-tag (N); TurboTEV protease cleavage site (ENLYFQG) (N); made in house; host or cells: E. coli (pHIS1, modified pET expression vector)
T2 sequence (P51449 269-508 limits assumed): T1 sequence (P51449 269-508 limits assumed)
In short: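 Thermal shift assay on 0.065 mg/mL RORγt LBD with 60 µM 1,8-ANS in 100 mM Hepes pH 7.0, 10 mM NaCl, 2.5 mM GSH, 0.002% Tween-20. Heated at 1 °C/min, fluorescence read at 500 nm.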

Structure (SMILES)	RORγt reporter Assay, % inhibition @ 6 µM [1]	pIC50 [1]	pIC50 [2]	pKd [3]	pIC50 ([2]; Homo sapiens, CD4+ T, 72 h)	inhibition at 6 µM [1]
COc1nc2ccc(C(O)(c3ccc(C(F)(F)F)nc3)c3cncn3C)cc2c(Cl)c1-c1ccc(Cl)s1 (single isomer, unassigned) [Example 14b, [4-Chloro-3-(5-chlorothiophen-2-yl)-2-methoxyquinolin-6-yl](1-methyl-1H-imidazol-5-yl)[6-(trifluoromethyl)pyridin-3-yl]methanol]	53%	6.62	7.10	8.28	–	–
Cc1cc(C(O)(c2ccc(C(F)(F)F)nc2)c2cncn2C)cc2c(C#N)c(-c3ccccc3)c(C#N)nc12 (single isomer, unassigned) [Example 25c, 6-(Hydroxy(1-methyl-1H-imidazol-5-yl)(6-(trifluoromethyl)pyridin-3-yl)methyl)-8-methyl-3-phenylquinoline-2,4-dicarbonitrile]	95%	6.80	–	7.21	6.80	–
Cc1cc(C(O)(c2ccc(Cl)cc2)c2cncn2C)cc2c(C#N)c(-c3ccccc3)c(C#N)nc12 (single isomer, unassigned) [Example 23c, 6-((4-Chlorophenyl)(hydroxy)(1-methyl-1H-imidazol-5-yl)methyl)-8-methyl-3-phenylquinoline-2,4-dicarbonitrile]	100%	6.64	–	6.82	6.40	–
COc1nc2ccc(C(O)(c3ccc(C(F)(F)F)nc3)c3cncn3C)cc2c(Cl)c1-c1ccc(Cl)s1 (single isomer, unassigned) [Example 14c, [4-Chloro-3-(5-chlorothiophen-2-yl)-2-methoxyquinolin-6-yl](1-methyl-1H-imidazol-5-yl)[6-(trifluoromethyl)pyridin-3-yl]methanol]	87%	6.29	6.51	6.85	–	–
Cc1nc(C)c(C(O)(c2ccc3nc(C#N)c(-c4ccccc4)c(C#N)c3c2)c2cnnn2C)s1 (single isomer, unassigned) [Example 47c, 6-((2,4-Dimethylthiazol-5-yl)(hydroxy)(1-methyl-1H-1,2,3-triazol-5-yl)methyl)-3-phenylquinoline-2,4-dicarbonitrile]	100%	7.60	–	8.72	7.27	–
COc1nc2ccc(C(O)(c3cncn3C)C3CCN(C(C)=O)CC3)cc2c(Cl)c1-c1cccc(C(F)(F)F)c1 (single isomer, unassigned) [Example 1c, 1-(4-((4-Chloro-2-methoxy-3-(3-(trifluoromethyl)phenyl)quinolin-6-yl)(hydroxy)(1-methyl-1H-imidazol-5-yl)methyl)piperidin-1-yl)ethanone]	95%	6.96	6.51	7.48	–	–
COc1nc2ccc(C(O)(c3cncn3C)c3cnnn3C)cc2c(Cl)c1-c1cccc(C(F)(F)F)c1 (single isomer, unassigned) [Example 3c, (4-Chloro-2-methoxy-3-(3-(trifluoromethyl)phenyl)quinolin-6-yl)(1-methyl-1H-1,2,3-triazol-5-yl)(1-methyl-1H-imidazol-5-yl)methanol]	98%	8.18	7.37	8.64	–	–
COc1nc2ccc(C(O)(c3cncn3C)c3cnnn3C)cc2c(Cl)c1-c1cccc(C(F)(F)F)c1 (single isomer, unassigned) [Example 3b, (4-Chloro-2-methoxy-3-(3-(trifluoromethyl)phenyl)quinolin-6-yl)(1-methyl-1H-1,2,3-triazol-5-yl)(1-methyl-1H-imidazol-5-yl)methanol]	–	8.52	7.89	9.25	–	96%
COc1nc2ccc(C(O)(c3cncn3C)c3cnnn3C)cc2c(C#N)c1-c1cccc(C(F)(F)F)c1 (single isomer, unassigned) [Example 4b, 6-(Hydroxy(1-methyl-1H-1,2,3-triazol-5-yl)(1-methyl-1H-imidazol-5-yl)methyl)-2-methoxy-3-(3-(trifluoromethyl)phenyl)quinoline-4-carbonitrile]	–	8.02	–	8.36	7.21	98%
COc1nc2ccc(C(O)(c3ccc(C(F)(F)F)nc3)c3cncn3C)cc2c(Cl)c1-c1ccc(C#N)cc1 (stereo not drawn) [Example 16, 4-(4-Chloro-6-{hydroxy(1-methyl-1H-imidazol-5-yl)[6-(trifluoromethyl)pyridin-3-yl]methyl}-2-methoxyquinolin-3-yl)benzonitrile•TFA]	–	6.70	–	7.57	7.09	86%
COc1nc2ccc(C(O)(c3cncn3C)c3cnnn3C)cc2c(C#N)c1-c1cccc(C(F)(F)F)c1 (single isomer, unassigned) [Example 4c, 6-(Hydroxy(1-methyl-1H-1,2,3-triazol-5-yl)(1-methyl-1H-imidazol-5-yl)methyl)-2-methoxy-3-(3-(trifluoromethyl)phenyl)quinoline-4-carbonitrile]	98%	7.96	7.51	8.85	–	–
COc1nc2c(C)cc(C(O)(c3ccc(C(F)(F)F)nc3)c3cncn3C)cc2c(C#N)c1-c1ccc(OC(F)(F)F)cc1 (single isomer, unassigned) [Example 19b, 6-(Hydroxy(1-methyl-1H-imidazol-5-yl)(6-(trifluoromethyl)pyridin-3-yl)methyl)-2-methoxy-8-methyl-3-(4-(trifluoromethoxy)phenyl)quinoline-4-carbonitrile]	94%	6.52	–	6.44	6.40	–
